Converted amounts (≈) assume the structure as drawn. Read-outs that look alike come from different tables or passages of the source.
Experiments:
[1] = Bioconversion in mouse plasma in vitro; assay type: in vitro ADME
[2] = Solubility in water
[3] = system: mouse water toxicity model (cerebral edema); experiment: Mouse water toxicity model, brain volume by MRI
Procedure: The first time point at 5.67 min coincides with the scan slice at the middle of the brain during the first post-injection scan. Other time points are placed in a similar manner. The data is fitted to a single exponential equation: V/V0=Vi+dVmax(1−e^(−kt)); • where V/V0=relative brain volume, Vi=initial relative brain volume, dVmax=maximum change in relative brain volume, k=first order rate constant (min^−1), and t=time in minutes.
Mouse Water Toxicity Model—Brain Volume by Magnetic Resonance Imaging (MRI): MRI is used to measure changes in brain volume in response to water shock, using the water toxicity model. As described for the survival and brain water content studies above, mice are injected, IP, with a water bolus alone or water bolus and test compound at 0.76 mg/kg, and changes in brain volume as detected by MRI are monitored. […] High resolution T2-weighted sagittal scans (resolution=0.1 mm×0.1 mm×0.7 mm) of the mouse head are obtained prior to water injection, 5.67 min post water injection, and then every 5.2 minutes until the animal expires from the water loading. […] The cross sectional area of the brain in each imaging slice is measured by manual region-of-interest selection using ImageJ. Brain volumes are then calculated for each scan by summing the individual cross sectional brain areas and multiplying by the slice thickness (0.7 mm).

[4] = system: AQP4; experiment: Aquaporin-Mediated Cell Volume Change Assay, CHO cells expressing AQP4 (AQP4b); assay type: cell-based; details: 10 μM, stable CHO cell line, FIG. 2
Procedure: (§1) Structure activity relationships (SARs) are determined by assaying analogues of selected hits to guide chemistry for the preparation of new molecules to be tested for improved potency. For this iterative process we use a quantitative kinetic assay—the Aquaporin-Mediated Cell Volume Change Assa—in a 96-well multiplate reader. It detects changes in light scattering by a monolayer of CHO cells expressing the desired AQP as they shrink when exposed to hypertonic solution (300 mOsm→530 mOsm). FIG. 1 depicts the aquaporin-mediated cell volume change assay with AQP4 expressing cells (FIG. 1A) and AQP2 expressing cells (FIG. 1B). The cells expressing aquaporins shrink more rapidly than control cells, due to enhanced water flow, which shrinkage can be inhibited by a compound that inhibits the aquaporin.
(§2) In FIG. 1, aquaporin-expressing cells are shown in the presence of DMSO (triangles) or in the presence of the test compound (here, Compound 3) at 10 μM (squares), along with CHO-CD81 expressing control cells in the presence of DMSO (diamonds). Each curve represents an average of 16 wells in the 96-well plate.
(§3) In FIG. 1A, when the AQP4b cells treated with DMSO are exposed to hypertonic shock, the cells show rapid shrinking, giving a rise in light scattering (increasing relative change in absorbance, Abs/Abs0) followed by a decay as cells detach from the plate. […]

[5] = molecular target: T1, AQP2 (Homo sapiens, UniProt P41181); experiment: Aquaporin-Mediated Cell Volume Change Assay, CHO cells expressing AQP2; assay type: cell-based; details: 10 μM, stable CHO cell line, FIG. 2
T1 construct: expressed in transfected cells
T1 sequence (P41181 1-271): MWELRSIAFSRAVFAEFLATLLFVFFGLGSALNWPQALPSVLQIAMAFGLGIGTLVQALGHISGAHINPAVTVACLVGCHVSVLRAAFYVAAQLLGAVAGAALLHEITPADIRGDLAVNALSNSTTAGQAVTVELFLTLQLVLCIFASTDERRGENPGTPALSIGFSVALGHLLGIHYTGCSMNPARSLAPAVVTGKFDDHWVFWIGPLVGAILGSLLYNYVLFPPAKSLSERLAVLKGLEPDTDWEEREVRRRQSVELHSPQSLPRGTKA
Procedure: as §1, §2, §3

[6] = molecular target: T2, AQP5 (Homo sapiens, UniProt P55064); experiment: Aquaporin-Mediated Cell Volume Change Assay, CHO cells expressing AQP5 (specificity); assay type: cell-based; details: 10 μM, stable CHO cell line, FIG. 2
T2 construct: expressed in transfected cells
Procedure: as §1
(§4) The specificity of the compounds is tested against the most closely related of the 13 known aquaporins: AQP1, AQP2, AQP5 and both splice variants of AQP4 (A and B). A stable CHO cell line is created for each of the above aquaporins and the inhibition of water permeability using the Aquaporin-Mediated Cell Volume Change Assay with 10 μM Compound 3 is tested.

[7] = molecular target: T3, AQP1 (Homo sapiens, UniProt P29972); experiment: Aquaporin-Mediated Cell Volume Change Assay, CHO cells expressing AQP1 (specificity); assay type: cell-based; details: 10 μM, stable CHO cell line, FIG. 2
T3 construct: expressed in transfected cells
T3 sequence (P29972 1-269): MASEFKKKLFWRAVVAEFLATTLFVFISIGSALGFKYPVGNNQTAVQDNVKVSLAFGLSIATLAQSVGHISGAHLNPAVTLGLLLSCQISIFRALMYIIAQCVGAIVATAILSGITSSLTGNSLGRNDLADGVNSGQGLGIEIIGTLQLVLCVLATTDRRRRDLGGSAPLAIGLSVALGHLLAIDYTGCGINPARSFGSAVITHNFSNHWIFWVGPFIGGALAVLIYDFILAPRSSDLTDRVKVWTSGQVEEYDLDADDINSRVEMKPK
Procedure: as §1, §4

[8] = molecular target: purified AQP4b (Homo sapiens, UniProt P55087); experiment: Hummel-Dryer style binding assay with [3H]-Compound 4 and purified AQP4b; details: for Kd: detergent buffer, 1 μM [3H]-Compound 4, read-out: relative affinity
Procedure: To support the mechanism of action by which phenylbenzamides directly block AQP4, we perform in vitro binding studies using purified AQP4b and Compound 4 radiolabeled with ^3H. Using a Hummel-Dryer style assay, a gel filtration column is equilibratrated with buffer containing detergent, to maintain solubility of AQP4b, and 1 μM [^3H]-Compound 4. AQP4b is diluted to 250 μM in this column buffer and incubated at RT for 30 min. The sample is then applied to the column, fractions collected and the presence of [^3H]-Compound 4 detected by liquid scintillation counting. […] The rise in [^3H]-Compound 4 from a baseline value of 1 μM represents binding to each of these proteins.

[9] = system: mouse middle cerebral artery occlusion (MCAo) model; experiment: Mouse MCAo stroke model, cerebral edema by MRI and neurological outcome
Procedure: To mimic this injury in mice, an intraluminal monofilament model of middle cerebral artery occlusion (MCAo) is used. Occlusion is achieved by inserting a surgical filament into the external carotid artery (ECA) and threading it forward into the internal carotid artery (ICA) until the tip blocks the origin of the MCA. […] This technique is used to study a temporary occlusion in which the MCA is blocked for one hour. The filament is then removed allowing reperfusion to occur for 24 hours before the animal's brain was imaged using T2-weighted scans in a 9.4 T Bruker MRI scanner at the Case Center for Imaging Research (FIG. 10).
Cerebral Edema—Mice are given saline or treated with Compound 5 by multi-dosing at 5 mg/kg i.p. every three hours (n=8 per treatment). […] Ipsilateral and contralateral hemispheric volume is measured from the T2-weighted MR images of mice 24 hours post-icus. Relative change in hemispheric volume is calculated as a percent of the difference between ipsilateral brain volume (Vi) and contralateral brain volume (Vc) relative to the contralateral brain volume (Percent Change in Hemispheric Brain Volume=((Vi−Vc)/Vc)×100%.
Neurological Outcome—In the same experiment as above, animals are scored for neurological outcome on a simple 5 point scale described in Manley, G. T. et al., Aquaporin-4 Deletion in Mice Reduces Brain Edema After Acute Water Intoxication and Ischemic Stroke, Nature Medicine, 6, 159-163 (2000).

[10] = system: mouse middle cerebral artery occlusion (MCAo) model; experiment: Mouse MCAo stroke model, survival; assay type: in vivo; details: 2 mg/kg i.p. loading dose plus 1 mg/ml at 8 μl/h pump, versus saline, P<0.05
Procedure: To mimic this injury in mice, an intraluminal monofilament model of middle cerebral artery occlusion (MCAo) is used. Occlusion is achieved by inserting a surgical filament into the external carotid artery (ECA) and threading it forward into the internal carotid artery (ICA) until the tip blocks the origin of the MCA. […] This technique is used to study a temporary occlusion in which the MCA is blocked for one hour.
Survival—Mice are treated with Compound 5 using a 2 mg/kg i.p. loading dose and 1 mg/ml at 8 μl/h maintenance dose (delivered by an i.p. osmotic pump) of Compound 5, or given saline (controls; n=17) using an identical approach.

[11] = system: AQP; experiment: AQP inhibition cell-based assay (Table 1)
Procedure: as §1

Chain of purified AQP4b (P55087 23-323): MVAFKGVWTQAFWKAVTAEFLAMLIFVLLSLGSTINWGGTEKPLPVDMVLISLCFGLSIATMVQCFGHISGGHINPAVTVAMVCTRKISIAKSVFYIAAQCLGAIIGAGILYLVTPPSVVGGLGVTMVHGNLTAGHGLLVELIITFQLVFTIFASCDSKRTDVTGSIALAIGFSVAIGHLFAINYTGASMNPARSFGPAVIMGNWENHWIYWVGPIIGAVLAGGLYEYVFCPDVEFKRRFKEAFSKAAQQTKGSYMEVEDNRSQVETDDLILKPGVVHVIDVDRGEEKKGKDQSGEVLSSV
T2 sequence (P55064 whole entry): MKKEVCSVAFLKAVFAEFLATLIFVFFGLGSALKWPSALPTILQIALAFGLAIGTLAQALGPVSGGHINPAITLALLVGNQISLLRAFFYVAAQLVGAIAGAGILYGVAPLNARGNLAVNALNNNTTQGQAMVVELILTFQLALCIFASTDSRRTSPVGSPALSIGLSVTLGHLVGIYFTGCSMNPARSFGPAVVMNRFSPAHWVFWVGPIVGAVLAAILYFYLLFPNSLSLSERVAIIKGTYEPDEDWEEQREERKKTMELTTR

For O=C(Nc1cc(C(F)(F)F)cc(C(F)(F)F)c1)c1cc(Cl)ccc1OP(=O)(O)O, the “bioconversion to Compound 1 (in words)” value ([1]; added to mouse plasma in vitro) was “rapid bioconversion”, the “time sufficient to render the salt undetectable” value ([1]; mouse plasma in vitro, 20° C.) was “Less than 5 minutes” and the “level of the salt in plasma samples of mice injected IP (in words)” value (IP injection) was “undetectable”. For the same compound, the “bioavailability and conversion to Compound 1 (in words)” value (IP injection, Compound 1 detected in plasma) was “good bioavailability and near-complete conversion”.

In the case of O=C(Nc1cc(C(F)(F)F)cc(C(F)(F)F)c1)c1cc(Cl)ccc1O [Compound 1, N-(3,5-Bis-trifluoromethyl-phenyl)-5-chloro-2-hydroxy-benzamide], the solubility [2] is reported as 3.8 µg/mL (≈ 9.9 µM), the “extent of CE during the period of observation (in words)” value ([3]; 0.76 mg/kg) is reported as “reduced” and the “expected efficacious plasma concentration” value (taken from the mouse water toxicity model) is reported as 20 ng/mL.

For O=C(Nc1cc(Cl)cc(Cl)c1)c1cc(Cl)ccc1O [Compound 3], the “inhibition of water permeability (in words)” value (“inhibition … (in words)” for short) [4] was “inhibits”, the “inhibition … (in words)” value [5] was “inhibits” and the “inhibition … (in words)” value [6] was “poorly inhibits”. For the same compound, the “inhibition … (in words)” value [7] was “poorly inhibits”.

In the case of O=C(Nc1cc(C(F)(F)F)cc(C(F)(F)F)c1)c1cc(C(F)(F)F)ccc1O [Compound 4, N-[3,5-bis(trifluoromethyl)phenyl]-2-hydroxy-5-(trifluoromethyl)benzamide], the Kd ([8]; monomeric AQP4b) is reported as less than 1 µM, the “binding to solubilized AQP4b (in words)” value ([8]; solubilized AQP4b) is reported as “relatively weak binding” and the Kd ([8]; tetrameric AQP4b) is reported as roughly 100 µM.

In the case of O=C(Nc1cc(C(F)(F)F)cc(C(F)(F)F)c1)c1cc(Cl)ccc1OP(=O)(O)O [Compound 5], the “neurological progression (in words)” value ([9]; 5 mg/kg i.p. every three hours) is reported as “did not progress into a state of severe paralysis or death”, the “relative change in ipsilateral brain volume” value ([9]; 5 mg/kg i.p. every three hours, 24 hours after MCAo, ±SEM, control 13.4%±1.9%) is reported as 4.2±1.7% and the “reduction in brain swelling after MCAo” value ([9]; 5 mg/kg i.p. every three hours, versus control) is reported as 3.2 fold. For the same compound, the average neurological score ([9]; 5 point scale, P=0.025, control 2.77±0.66) was 0.88±0.31, the solubility [2] was 1000 µg/mL (≈ 2160 µM) and the “improvement in overall survival at 24 h” value [10] was 29.4%.

With O=C(Nc1ccccc1)c1ccccc1 [Phenylbenzamide, reference compound] the “AQP Inhibition Cell-Based Assay” value [11] was 4.5% and the “reduction in the rate of CE (in words)” value ([3]; 0.39 mg/kg) was “fails to show reduction”.

— patent US9949991B2, “Methods of treating aquaporin-mediated conditions” (Aeromics, Inc., priority 2013, dated 2018)
